From article PMC6150735, “Molecular Docking-Based Design and Development of a Highly Selective Probe Substrate for UDP-glucuronosyltransferase 1A10” (Molecular Pharmaceutics, 2018) come the findings set out here.

Data set [1] in a line: Excitation and emission fluorescence spectra of coumarin derivatives. It is filed as physicochemical. Also on record: dose or concentration left out as unconfirmed. The method, then:
The absorbance spectra of 10 μM coumarin derivatives at 100 mM Tris–HCl pH 7.4 containing 10% dimethyl sulfoxide were measured using a Hitachi U-2000 Spectrophotometer (Tokyo, Japan). […] The excitation spectra was from 200 to 420 at 460 nm emission and the emission spectra was from 400 to 600 at 390 nm excitation (data in Supplementary Table S1 and Figures S1 and S2). The effect of pH on fluorescence intensity was determined at 405 nm excitation and 460 nm emission, in the presence of 1.5% trichloroacetic acid, 100 mM phosphate buffers at pH 5, 6, 7, 8, and 9, or 1.6 M glycine–NaOH pH 10.4.

The target of a further data set is T1, UGT1A10 (Homo sapiens, UniProt Q9HAW8).
T1 construct: His-tag; made in house; host or cells: baculovirus-infected insect cells
T1 sequence (Q9HAW8 26-530): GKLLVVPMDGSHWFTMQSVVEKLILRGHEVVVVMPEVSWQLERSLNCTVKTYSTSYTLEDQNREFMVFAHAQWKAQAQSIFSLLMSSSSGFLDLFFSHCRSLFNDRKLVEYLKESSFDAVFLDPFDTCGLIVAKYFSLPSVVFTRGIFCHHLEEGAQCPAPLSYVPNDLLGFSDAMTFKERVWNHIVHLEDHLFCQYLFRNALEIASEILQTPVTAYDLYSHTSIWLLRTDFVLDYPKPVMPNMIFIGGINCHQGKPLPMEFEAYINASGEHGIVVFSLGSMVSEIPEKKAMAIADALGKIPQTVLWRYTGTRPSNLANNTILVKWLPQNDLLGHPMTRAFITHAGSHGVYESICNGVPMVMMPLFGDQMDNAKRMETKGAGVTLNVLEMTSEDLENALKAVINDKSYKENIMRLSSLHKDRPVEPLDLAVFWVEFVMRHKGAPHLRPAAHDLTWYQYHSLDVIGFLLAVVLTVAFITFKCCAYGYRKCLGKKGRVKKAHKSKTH
In words: Glucuronidation kinetics by recombinant wild-type UGT1A10 (fluorescence decrease, 96-well plate). It is filed as biochemical. The method, then: Recombinant human UGTs 1A1, 1A3, 1A6, 1A7, 1A8, 1A9, 1A10, 2A1, 2A2, 2A3, 2B4, 2B10, 2B7, and 2B17 were produced, as His-tagged proteins, in baculovirus-infected insect cells as previously described.[37]−[39] The relative expression level of each of these recombinant UGTs was evaluated by immunodetection, using monoclonal antibody against the His-tag, as described elsewhere.[40] A numeric value of 1.0 was given to the expression level of UGT1A8 and the relative expression level of each of the other UGTs was related to this value. Normalized activities were obtained by dividing the glucuronidation rate values by the relative expression level of the tested UGT. […] The expression levels of the UGTs in the commercial samples could not be determined, so their protein concentration was used to calculate the reaction rate.
The incubation mixtures for glucuronidation assays contained 100 mM Tris-HCl buffer pH 7.4, 2.5 mM MgCl2, 0.5 mM UDPGA, recombinant UGT, or microsomes as the enzyme source and 0–15 μM of the test aglycone substrate. […] In subsequent experiments, the control samples lacked the enzyme source since it gave the highest fluorescence background. […] Fluorescence spectra (excitation 200–420 nm; emission 400–600 nm) or fluorescence decrease at 390 nm excitation and 460 nm emission, were measured in these preliminary experiments, using a Shimadzu RF-5000 spectrophotofluorometer. […]

Regarding `O=c1oc2cc(O)ccc2cc1-n1cncn1` [Compound 6, 7-Hydroxy-3-(1H-1,2,4-triazol-1-yl)-2H-chromen-2-one], in data set [1], the “Fluorescence EMmax” value amounted to 494 nm and the “Fluorescence EXmax” value is 396 nm. The “Intrinsic glucuronidation clearance (Vmax/Km) by UGT1A10 relative to compounds 1–5” value on UGT1A10 is “less than 30%”.
